Measurements reported in paper PMC7891582 (Journal of Clinical Pharmacology, 2020).
“Also recorded” adds a separate entry of the source.

Tests used:
CYP3A [1] = experiment: Midazolam; assay type: in vivo, human
CYP2C9 [2] = target: CYP2C9 (Homo sapiens, UniProt P11712); experiment: Tolbutamide; assay type: in vivo
P‐gp [3] = target: P‐gp (Homo sapiens, UniProt P08183); experiment: Digoxin; assay type: in vivo
CYP2C19 [4] = target: CYP2C19 (Homo sapiens, UniProt P33261); experiment: Omeprazole
[5] = Safety in midazolam/tolbutamide study; assay type: in vivo, human
[6] = Safety in omeprazole/digoxin study; assay type: in vivo, human
CYP3A [7] = details: ref unpublished in vitro studies, cited from earlier work
CYP2C9 [8] = details: read-out: IC50 for CYP2C9 inhibition; in vitro; ref unpublished in vitro studies; cited from earlier work
CYP2C19 [9] = details: in vitro data; ref unpublished in vitro studies; cited from earlier work
P‐gp [10] = details: cited from earlier work
CYP3A [11] = details: human liver microsome, concentration-dependent; ref unpublished data; cited from earlier work
[12] = cited from earlier work
[13] = coadministered with pexidartinib
[14] = coadministered with pexidartinib 1800 mg
[15] = after multiple doses of pexidartinib
[16] = coadministration with single dose of pexidartinib
[17] = coadministered with single dose pexidartinib
[18] = omeprazole plus pexidartinib vs omeprazole only

Chain of CYP2C19 (Homo sapiens, UniProt P33261) (P33261 whole entry): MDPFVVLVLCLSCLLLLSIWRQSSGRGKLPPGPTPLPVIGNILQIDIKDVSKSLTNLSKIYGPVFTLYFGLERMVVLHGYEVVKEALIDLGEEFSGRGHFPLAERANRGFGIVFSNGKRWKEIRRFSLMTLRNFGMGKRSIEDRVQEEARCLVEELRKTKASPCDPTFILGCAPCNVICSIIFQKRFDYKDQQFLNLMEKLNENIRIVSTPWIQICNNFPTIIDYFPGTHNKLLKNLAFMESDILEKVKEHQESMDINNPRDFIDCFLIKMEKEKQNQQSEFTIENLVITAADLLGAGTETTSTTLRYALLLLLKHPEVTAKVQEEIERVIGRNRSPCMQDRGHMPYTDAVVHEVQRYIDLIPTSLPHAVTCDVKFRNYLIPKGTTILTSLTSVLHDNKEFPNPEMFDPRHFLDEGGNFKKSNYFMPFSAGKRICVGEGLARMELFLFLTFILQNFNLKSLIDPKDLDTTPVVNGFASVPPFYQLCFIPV
Chain of P‐gp (Homo sapiens, UniProt P08183) (P08183 whole entry): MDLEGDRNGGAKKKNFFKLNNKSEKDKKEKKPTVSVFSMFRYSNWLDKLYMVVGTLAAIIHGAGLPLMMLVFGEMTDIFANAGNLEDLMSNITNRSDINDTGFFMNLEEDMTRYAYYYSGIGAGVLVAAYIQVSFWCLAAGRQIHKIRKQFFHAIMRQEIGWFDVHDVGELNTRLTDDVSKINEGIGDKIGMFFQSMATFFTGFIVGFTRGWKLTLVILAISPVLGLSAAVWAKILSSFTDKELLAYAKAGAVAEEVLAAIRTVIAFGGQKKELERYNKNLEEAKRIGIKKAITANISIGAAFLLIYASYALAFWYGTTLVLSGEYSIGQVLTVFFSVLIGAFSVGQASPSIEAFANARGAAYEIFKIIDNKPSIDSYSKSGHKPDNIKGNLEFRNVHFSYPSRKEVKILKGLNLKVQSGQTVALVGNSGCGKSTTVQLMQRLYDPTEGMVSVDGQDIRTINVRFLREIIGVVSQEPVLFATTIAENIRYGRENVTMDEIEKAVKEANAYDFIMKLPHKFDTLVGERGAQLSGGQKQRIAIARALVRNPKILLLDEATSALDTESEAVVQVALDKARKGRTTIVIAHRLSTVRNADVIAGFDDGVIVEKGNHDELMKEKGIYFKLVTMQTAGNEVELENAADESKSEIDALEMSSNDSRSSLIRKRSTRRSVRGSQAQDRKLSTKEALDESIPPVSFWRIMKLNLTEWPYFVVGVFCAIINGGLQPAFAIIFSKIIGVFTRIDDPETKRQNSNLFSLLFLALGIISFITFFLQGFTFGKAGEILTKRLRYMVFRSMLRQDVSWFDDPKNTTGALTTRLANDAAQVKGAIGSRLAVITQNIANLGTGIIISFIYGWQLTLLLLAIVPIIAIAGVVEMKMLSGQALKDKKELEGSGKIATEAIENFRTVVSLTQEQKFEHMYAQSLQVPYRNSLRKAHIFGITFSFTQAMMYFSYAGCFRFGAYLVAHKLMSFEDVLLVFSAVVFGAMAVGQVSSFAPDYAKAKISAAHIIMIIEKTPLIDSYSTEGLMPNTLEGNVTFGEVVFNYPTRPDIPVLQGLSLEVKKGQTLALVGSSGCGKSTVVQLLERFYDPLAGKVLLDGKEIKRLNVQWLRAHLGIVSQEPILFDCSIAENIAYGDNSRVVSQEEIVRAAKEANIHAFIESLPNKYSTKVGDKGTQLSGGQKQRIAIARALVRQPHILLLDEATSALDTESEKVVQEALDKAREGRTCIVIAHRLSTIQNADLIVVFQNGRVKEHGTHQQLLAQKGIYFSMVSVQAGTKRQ
Chain of CYP2C9 (Homo sapiens, UniProt P11712) (P11712 whole entry): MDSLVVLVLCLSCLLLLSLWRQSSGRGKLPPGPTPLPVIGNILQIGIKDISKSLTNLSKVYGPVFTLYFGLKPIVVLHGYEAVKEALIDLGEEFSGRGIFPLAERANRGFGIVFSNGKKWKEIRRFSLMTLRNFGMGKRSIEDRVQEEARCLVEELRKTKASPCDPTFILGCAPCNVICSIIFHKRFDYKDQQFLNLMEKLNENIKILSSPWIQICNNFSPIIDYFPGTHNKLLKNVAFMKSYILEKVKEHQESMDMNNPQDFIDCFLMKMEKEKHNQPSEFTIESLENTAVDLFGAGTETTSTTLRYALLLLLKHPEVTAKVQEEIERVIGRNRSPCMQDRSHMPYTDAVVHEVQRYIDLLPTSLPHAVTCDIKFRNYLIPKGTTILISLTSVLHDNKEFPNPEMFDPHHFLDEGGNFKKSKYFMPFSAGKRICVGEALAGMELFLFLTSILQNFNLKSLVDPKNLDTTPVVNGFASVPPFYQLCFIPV

In the case of OCc1ncc2n1-c1ccc(Cl)cc1C(c1ccccc1F)=NC2 [1‐hydroxy midazolam], the “exposure to 1-hydroxy midazolam” value (CYP3A [1]; with or without concomitant pexidartinib) is reported as “similar”.

For CCCCNC(=O)NS(=O)(=O)c1ccc(CO)cc1 [4‐hydroxy tolbutamide], the “exposure to 4-hydroxy tolbutamide” value (CYP2C9 [2]; during pexidartinib coadministration) was “decrease”.

In the case of C[C@H]1O[C@@H](O[C@H]2[C@@H](O)C[C@H](O[C@H]3[C@@H](O)C[C@H](O[C@H]4CC[C@@]5(C)[C@H](CC[C@@H]6[C@@H]5C[C@@H](O)[C@]5(C)[C@@H](C7=CC(=O)OC7)CC[C@]65O)C4)O[C@@H]3C)O[C@@H]2C)C[C@H](O)[C@@H]1O [digoxin], the “effect on digoxin AUClast” value (P‐gp [3]; [13]) is reported as “no significant effect; also recorded: nonsignificant effect”, the “effect on digoxin time to reach Cmax or shape of plasma concentration-time curve” value (P‐gp [3]; [13]) is reported as “no apparent effect” and the “increase in digoxin AUClast” value (P‐gp [3]; [14]) is reported as 8%. For the same compound, the “increase in digoxin Cmax” value (P‐gp [3]; [14]) was 32%.

With Cc1ncc2n1-c1ccc(Cl)cc1C(c1ccccc1F)=NC2 [midazolam] the “decrease in midazolam AUClast” value (CYP3A [1]; [15]) was 52%, the “decrease in midazolam Cmax” value (CYP3A [1]; [15]) was 28% and the “decrease in midazolam AUClast” value (CYP3A [1]; [16]) was 21%. For the same compound, the “decrease in midazolam Cmax” value (CYP3A [1]; [16]) was 9%.

With COc1ccc2[nH]c([S+]([O-])Cc3ncc(C)c(OC)c3C)nc2c1 (stereo not drawn) [omeprazole] the “decrease in Cmax for omeprazole” value (CYP2C19 [4]; [17]) was 37%, the omeprazole tmax (CYP2C19 [4]; [17]) was 3 h and the AUC(0-inf) (CYP2C19 [4]; human, plasma, oral, 40 mg) was 1740 ng·h/mL. For the same compound, the AUC(0-t) (CYP2C19 [4]; human, plasma, oral, 40 mg) was 1730 ng·h/mL, the tmax (CYP2C19 [4]; human, plasma, oral, 40 mg) was 2.25 h and the Cmax (CYP2C19 [4]; human, plasma, po, 40 mg) was 908 ng/mL. The “AUCinf geometric LS mean ratio” value (CYP2C19 [4]; [18]) was 83.2%, the “AUClast geometric LS mean ratio” value (CYP2C19 [4]; [18]) was 77.4% and the “Cmax geometric LS mean ratio” value (CYP2C19 [4]; [18]) was 62.8%.

In the case of FC(F)(F)c1ccc(CNc2ccc(Cc3c[nH]c4ncc(Cl)cc34)cn2)cn1 [pexidartinib], the “in vivo effect on CYP3A (FDA criteria)” value (CYP3A [1]; midazolam probe) is reported as “moderate inducer”, the “in vivo effect on CYP2C9 (FDA criteria)” value (CYP2C9 [2]; tolbutamide probe) is reported as “weak inhibitor” and the “in vivo effect on P-gp transport” value (P‐gp [3]; digoxin probe) is reported as “does not significantly affect”. For the same compound, the “subjects with a grade 4 TEAE” value ([5]; 30 subjects with tumors) was 4 subjects, the “subjects with grade 3 TEAEs” value ([5]; 30 subjects with tumors) was 40% and the “subjects who discontinued treatment due to pexidartinib-related TEAEs” value ([5]; drug hypersensitivity, increased blood bilirubin) was 7%. The “grade 4 TEAEs considered related to pexidartinib” value ([5]; increased bilirubin) was 1, the tolerability ([5]; midazolam/tolbutamide study) was “generally well tolerated” and the “grade 3 TEAEs considered related to pexidartinib” value ([5]; of 22 grade 3 TEAEs) was 9. The “TEAEs considered related to pexidartinib (all pruritus)” value ([6]; 20 healthy subjects) was “Three”, the “intensity of TEAEs” value ([6]; 20 healthy subjects) was “mild (grade 1)” and the “subjects who experienced a TEAE” value ([6]; 20 healthy subjects, single dose 1800 mg) was 40%. The tolerability ([6]; omeprazole/digoxin study) was “generally well tolerated”, the “type of in vitro effect on CYP3A” value (CYP3A [7]; in vitro data) was “direct and time‐dependent inhibitor and an inducer” and the IC50 (CYP3A [7]; read-out: IC50 for CYP3A inhibition, in vitro) was 16.7 µM. For the same compound, the IC50 (CYP2C9 [8]) was 3.7 µM, the “time dependence of inhibitory effect on CYP2C19” value (CYP2C19 [9]) was “not time dependent” and the “time dependence of inhibitory effect on P-gp” value (P‐gp [10]; in vitro data, ref unpublished in vitro studies) was “not time dependent”. For the same compound, the IC50 (P‐gp [10]; read-out: in vitro IC50 for P-gp, preclinical data, ref data on file) was 43.4 µM, the “effect on midazolam hydroxylation” value (CYP3A [11]) was “activated midazolam hydroxylation” and the “delay of tmax with high-fat meal” value [12] was 1.5 h. For the same compound, the “effect of high-fat meal on exposure” value [12] was “doubles”, the elimination half-life [12] was 26.6 h and the “accumulation ratio (exposure vs first dose)” value ([12]; multiple dosing, twice-daily regimen) was “≈ 3.6 times”. The tmax ([12]; oral administration) was “≈ 2.5 hours” and the “in vivo effect on CYP2C19-mediated metabolism” value (CYP2C19 [4]; omeprazole probe) was “does not significantly affect”.
